Results: US20100160432A1, “Curative drug for neurodegenerative diseases” (priority 2007, published 2010)
Where two headings read alike, the source gives them in different places.

Experiments:
SH-SY5Y cells = assay: Cytoprotection against linoleic acid hydroperoxide (LA-OOH) cell disorder, SH-SY5Y cells, methylene blue dye uptake; type: cell-based, human; details: for Protection Rate (%) / Survival Rate (%): SH-SY5Y cells, LA-OOH 70 μM, about 20 h
Method: (§1) Of the hydroquinone derivatives expressed in the aforesaid Formula 1, 2,3,5-trimethyl-hydroquinone-1-hexylether (Compound 1) was examined in comparison with vitamin E with respect to the activity of inhibiting toxicity of lipid peroxide to nerve cells. PC12 cells as a cell culture model of for human neuroblastoma-derived SH-SY5Y and rat pheochromocytoma cells were cultivated by the law of the art. A culture media was prepared in effect by adding FCS (fetal calf serum) to Dulbecco's Eagle medium (DMEM) and used further with the addition of NaHCO3 (3.7 g/L), penicillin G (100 U/mL) and Streptomycin ([…]). A cultivation was performed by seeding 6×10^4 SH-SY5Y cells and 4×10^4 PC12 cells in a CO2 incubator at 37° C. using a microplate with 24 macroscopic pores. After 48 hours, the aforesaid Compound 1 or vitamin E was added thereto. Then after about 30 minutes, 70 μM of linoleic acid hydroperoxide were added thereto for the SH-SY5Y cells and 35 μM of the same were added for PC12 cells. After cultivation for about 20 hours, the number of surviving cells was measured.
(§2) The measurement of the surviving cells was made by a Methylene blue dye uptake method. To be more specific, the cells were rinsed twice with PBS (phosphate buffered saline free from Mg and Ca), and then, fixated with 10% formalin for 5 minutes. Further, the cells were rinsed three times with distilled water, stained with 0.05% methylene blue solution for 60 minutes, and rinsed three times with distilled water. Then, 20 minutes after adding 0.33N HCl thereto, the absorbance of the cells was measured at 665 nm. The survival rate and protection rate of the cells were calculated on the basis of the measured result by the following equation.
(§3) Cell survival rate (%)=[absorbance of treated cells with testing additives]/[absorbance of non-treated cells]×100
(§4) Protection rate (%)={1−(100−[survival rate of treated cells with testing additives])/(100−[survival rate of cells with no additives])}×100

PC12 cells = assay: Cytoprotection against linoleic acid hydroperoxide (LA-OOH) cell disorder, PC12 cells, methylene blue dye uptake; type: cell-based, rat; details: for Protection Rate (%) / Survival Rate (%): LA-OOH 35 μM, about 20 h; for protection rate of PC12 cells (up to) / survival rate of PC12 cells (up to): highest value over the doses tested
Method: as §1, §2, §3, §4

[1] = compared with vitamin E, cited from earlier work
NO production = details: compared with vitamin E; cited from earlier work

CCCCCCOc1cc(C)c(O)c(C)c1C [Compound 1, 2,3,5-trimethyl-hydroquinone-1-hexylether]
toxicity in comparison with vitamin E (SH-SY5Y cells; SH-SY5Y cells and PC12 cells, from Table 1 and Table 2): lower toxicity | Protection Rate (%) (SH-SY5Y cells; dosage 0.5 μM): 14.8% | Survival Rate (%) (SH-SY5Y cells; dosage 0.5 μM): 83.41% | Protection Rate (%) (SH-SY5Y cells; dosage 1.0 μM): 22.1% | Survival Rate (%) (SH-SY5Y cells; dosage 1.0 μM): 84.83% | Protection Rate (%) (SH-SY5Y cells; dosage 5.0 μM): 38.3% | Survival Rate (%) (SH-SY5Y cells; dosage 5.0 μM): 87.97% | Protection Rate (%) (SH-SY5Y cells; dosage 10.0 μM): 33.5% | Survival Rate (%) (SH-SY5Y cells; dosage 10.0 μM): 87.04% | Protection Rate (%) (PC12 cells; dosage 0.1 μM): 21.5% | Survival Rate (%) (PC12 cells; dosage 0.1 μM): 45.68% | Protection Rate (%) (PC12 cells; dosage 0.5 μM): 80.6% | Survival Rate (%) (PC12 cells; dosage 0.5 μM): 86.57% | Protection Rate (%) (PC12 cells; dosage 1.0 μM): 88.4% | Survival Rate (%) (PC12 cells; dosage 1.0 μM): 91.96% | Protection Rate (%) (PC12 cells; dosage 5.0 μM): 88.9% | Survival Rate (%) (PC12 cells; dosage 5.0 μM): 92.31% | protection rate of PC12 cells (up to) (PC12 cells): around 90% | survival rate of PC12 cells (up to) (PC12 cells): around 90% | antioxidative properties relative to vitamin E [1]: double that of vitamin E | antioxidative properties relative to vitamin E ([1]; listed as 2,3,5-trimethyl-hydroquinone-1-hexylether): twice as strong as vitamin E | NO-production inhibitory activity relative to vitamin E (NO production): 500 times as strong as vitamin E

Vitamin E [reference compound]
Protection Rate (%) (SH-SY5Y cells; dosage 0.5 μM): 14.5% | Survival Rate (%) (SH-SY5Y cells; dosage 0.5 μM): 83.72% | Protection Rate (%) (SH-SY5Y cells; dosage 1.0 μM): −6.3% | Survival Rate (%) (SH-SY5Y cells; dosage 1.0 μM): 79.77% | Protection Rate (%) (SH-SY5Y cells; dosage 5.0 μM): −6.2% | Survival Rate (%) (SH-SY5Y cells; dosage 5.0 μM): 79.78% | Protection Rate (%) (SH-SY5Y cells; dosage 10.0 μM): 4.3% | Survival Rate (%) (SH-SY5Y cells; dosage 10.0 μM): 81.78% | Protection Rate (%) (PC12 cells; dosage 0.1 μM): 6.8% | Survival Rate (%) (PC12 cells; dosage 0.1 μM): 37.16% | Protection Rate (%) (PC12 cells; dosage 0.5 μM): 4.9% | Survival Rate (%) (PC12 cells; dosage 0.5 μM): 35.88% | Protection Rate (%) (PC12 cells; dosage 1.0 μM): 4.8% | Survival Rate (%) (PC12 cells; dosage 1.0 μM): 35.85% | Protection Rate (%) (PC12 cells; dosage 5.0 μM): 14.8% | Survival Rate (%) (PC12 cells; dosage 5.0 μM): 42.57% | protection rate of PC12 cells (up to) (PC12 cells): around 15% | survival rate of PC12 cells (up to) (PC12 cells): about 42%
